Three compounds from ChEMBL document CHEMBL4219098, “Unprecedented sugar bridged bisindoles selective inhibiting glioma stem cells” (Bioorg Med Chem, 2018) can be followed below.

Active and inactive are the calls of the source. The calls are words filed in the database; no cut-off is given here. Some results are limits rather than exact numbers.

Series [1] is described as follows: Cytotoxicity against human GSC18 cells assessed as reduction in cell viability after 4 days by MTS assay. To be noted: GSC18, 96 h. In kind it is functional, cell-based.
Series [2] can be described thus: Cytotoxicity against human GSC12 cells assessed as reduction in cell viability after 4 days by MTS assay. In kind it is functional, cell-based. Particulars: GSC12, 96 h. (Formazan colour is commonly taken as a measure of viable cells.)
Series [3] in a line: Cytotoxicity against human HAC cells assessed as reduction in cell viability after 4 days by MTS assay. Particulars: 96 h. In kind it is cell-based.
Series [4] deals with HEK-293T. Description: Cytotoxicity against human 293T cells assessed as reduction in cell viability after 4 days by MTS assay. Type of series: cell-based. Particulars: 96 h.
A short description of series [5]: Cytotoxicity against human HAC cells assessed as cell growth inhibition at 25 uM by phenotypic screening-based assay.
Series [6] has as its system Homo sapiens. Put plainly: Antiproliferative activity against human GSC18 cells assessed as decrease in number of clonal spheres at 25 uM administered 2 weeks post clonal sphere formation measured after 10 days by crystal violet-staining based assay. In kind it is functional, cell-based.
The species entered for series [7] is Homo sapiens. Description: Induction of intrinsic apoptosis in human GSC18 cells assessed as increase in bcl-2 mRNA levels at 25 uM after 10 days by RT-PCR analysis relative to DMSO. In kind it is functional, cell-based.
Series [8] has as its system HEK-293T. Description: Cytotoxicity against human 293T cells assessed as cell growth inhibition at 25 uM by phenotypic screening-based assay.
For series [9], the species on record is Homo sapiens. Description: Induction of extrinsic apoptosis in human GSC18 cells assessed as increase in IL1 mRNA levels at 25 uM after 10 days by RT-PCR analysis relative to DMSO. Type of series: functional, cell-based.
For series [10], the species on record is Homo sapiens. Put plainly: Induction of apoptosis in human GSC18 cells assessed as increase in calpain1 mRNA levels at 25 uM after 10 days by RT-PCR analysis relative to DMSO. Type of series: functional, cell-based.
The subject of series [11] is Homo sapiens. Put plainly: Antiproliferative activity against human GSC18 cells assessed as damage to clonal spheres morphology at 25 uM administered 2 weeks post clonal sphere formation measured after 10 days by crystal violet-staining based assay. In kind it is functional, cell-based.
The species entered for series [12] is Homo sapiens. Description: Induction of intrinsic apoptosis in human GSC18 cells assessed as increase in bax mRNA levels at 25 uM after 10 days by RT-PCR analysis relative to DMSO. Type of series: functional, cell-based.
For series [13], the species on record is Homo sapiens. Put plainly: Antiproliferative activity against human GSC18 cells assessed as reduction in BrdU-positive proliferating cells at 25 uM after 72 hrs by BrdU incorporation assay relative to DMSO. In kind it is functional, cell-based. On the technique in general: Incorporation of labelled thymidine or its analogues reports DNA synthesis.
The species named for series [14] is Homo sapiens. Description: Induction of intrinsic apoptosis in human GSC18 cells assessed as increase in bid mRNA levels at 25 uM after 10 days by RT-PCR analysis relative to DMSO. Type of series: functional, cell-based.
The species named for series [15] is Homo sapiens. Description: Induction of apoptosis in human GSC18 cells assessed as increase in caspase-3 positive apoptotic cells at 25 uM by immunofluorescence-staining based microscopic analysis. Type of series: functional, cell-based.
For series [16], the species on record is Homo sapiens. Description: Induction of apoptosis in human GSC18 cells assessed as increase in caspase12 mRNA levels at 25 uM after 10 days by RT-PCR analysis relative to DMSO. Type of series: functional, cell-based.
Series [17] is filed under the species Homo sapiens. Put plainly: Induction of intrinsic apoptosis in human GSC18 cells assessed as increase in apaf1 mRNA levels at 25 uM after 10 days by RT-PCR analysis relative to DMSO. Type of series: functional, cell-based.
The species named for series [18] is Homo sapiens. Description: Induction of extrinsic apoptosis in human GSC18 cells assessed as increase in TNFalpha mRNA levels at 25 uM after 10 days by RT-PCR analysis relative to DMSO. In kind it is functional, cell-based.
The species named for series [19] is Homo sapiens. Description: Cytotoxicity against human GSC12 cells assessed as cell growth inhibition at 25 uM by phenotypic screening-based assay. In kind it is functional.
The species named for series [20] is Homo sapiens. Put plainly: Cytotoxicity against human GSC18 cells assessed as cell growth inhibition at 25 uM by phenotypic screening-based assay. In kind it is functional.

A word on the IC50: it is the concentration at which inhibition is half-maximal. Regarding `CC(=O)O[C@H]1C(=O)[C@@]2(C)[C@H]([C@H](OC(=O)c3ccccc3)[C@]3(O)C[C@H](OC(=O)[C@H](O)[C@@H](NC(=O)c4ccccc4)c4ccccc4)C(C)=C1C3(C)C)[C@]1(OC(C)=O)CO[C@@H]1C[C@@H]2O` [PACLITAXEL], the IC50 was determined as 10.4 µM in series [1], 12.5 µM in [2], 0.0121 µM in series [3] and 0.0023 µM in the series with HEK-293T [4].

`C=C[C@H]1[C@H](O[C@@H]2O[C@H](CO[C@H]3C[C@@]45c6ccccc6N[C@]4(O3)[C@@H]3C[C@@H](/C(=C\C)C=[N+]3[O-])[C@H]5CC(=O)OC)[C@@H](O)[C@H](O)[C@H]2O)OC=C2C(=O)N3CCc4c([nH]c5ccccc45)[C@@H]3C[C@H]21`: the Activity result (in [5]; in the series on HEK-293T [8]) was “Non-Toxic” throughout. The outcome in the series with Homo sapiens [6], in the series listed under Homo sapiens [9], in the series on Homo sapiens [11], in the series listed under Homo sapiens [13], in the series filed under Homo sapiens [15] and in the series listed under Homo sapiens [18] was Active. In addition, the outcome in the series filed under Homo sapiens [7], in the series filed under Homo sapiens [10], in the series listed under Homo sapiens [12], in the series listed under Homo sapiens [14], in the series filed under Homo sapiens [16] and in the series filed under Homo sapiens [17] was inactive. Besides, the IC50 in series [1] is 19.2 µM; in series [2] it was 30.9 µM; in [3], more than 90 µM; in the series on HEK-293T [4] it was more than 90 µM. For the same compound, the “growth inhibition (GI)” value in the series listed under Homo sapiens [19] and in the series filed under Homo sapiens [20] was “Active” throughout.

On to `C=C[C@H]1[C@H](O[C@@H]2O[C@H](CO[C@H]3C[C@@]45c6ccccc6N[C@]4(O3)[C@@H]3C[C@@H](/C(=C/C)C=[N+]3[O-])[C@H]5CC(=O)OC)[C@@H](O)[C@H](O)[C@H]2O)OC=C2C(=O)N3CCc4c([nH]c5ccccc45)[C@@H]3C[C@H]21`, for which the Activity entry (in [5]; in the series with HEK-293T [8]) was “Non-Toxic” throughout. For the same compound, the result in the series with Homo sapiens [6], in the series listed under Homo sapiens [9], with Homo sapiens [11], in the series filed under Homo sapiens [13], in the series filed under Homo sapiens [15] and in the series filed under Homo sapiens [18] was Active. In addition, the result in the series listed under Homo sapiens [7], in the series filed under Homo sapiens [10], in the series listed under Homo sapiens [12], in the series listed under Homo sapiens [14], in the series listed under Homo sapiens [16] and in the series listed under Homo sapiens [17] was inactive. For the same compound, the IC50 in [1] was 16.1 µM; in series [2], 20.7 µM; in [3], more than 90 µM; with HEK-293T [4], more than 90 µM. Besides, the “growth inhibition (GI)” value in the series listed under Homo sapiens [19] and in the series listed under Homo sapiens [20] was “Active” throughout.
